Where two headings read alike, the source gives them in different places. Marks after values point to notes of the source that are not given here.
How the values were obtained:
[1] = tested on: type 1 fimbriated E. coli (HB101pPKL4); FimH-mediated binding to mannan; settings: relative to MeMan, IP(MeMan) ≡ 1; ELISA, as reported earlier; ref 34 (DubberMSperlingOLindhorstT KOrg Biomol Chem2006439013912); cited from earlier work
Source text: Table 1 Inhibitory potencies in mannose-specific E. coli adhesion of the bivalent glycopeptide 1 in comparison with reference ligands, as determined by ELISA. IC50-values are average values from three independent assays. S: standard deviation; RIP: relative inhibitory potency based on methyl α-D-mannopyranoside (MeMan) with IP(MeMan) ≡ 1.

[2] = tested on: type 1 fimbriated E. coli (HB101pPKL4); FimH-mediated binding to mannan; assay: ELISA, inhibition of mannose-specific type 1 fimbriated E. coli adhesion to mannan-coated microtiter plates; format: cell-based
Protocol: The synthesis of the bivalent glycopeptide 1 was not optimized in order to improve all the individual yields, because it has been the primary goal of this study to test the anti-adhesive properties of this type of ligand. An ELISA was performed as reported earlier, employing type 1 fimbriated E. coli bacteria and mannan-coated microtiter plates. In this assay a mannosidic ligand competes with the polysaccharide mannan adsorbed on a polystyrene microtiter plate for FimH-mediated binding to the type 1 fimbriated bacteria. The inhibitory ligand is employed in serial dilutions. This leads to inhibition curves, from which IC50-values can be deduced. The IC50-values reﬂect the inhibitor concentration that causes 50% inhibition of bacterial binding to mannan. […] Here, RIPs were based on the IC50-value determined for MeMan on the same plate, which was defined as IP ≡ 1. […]
An ELISA protocol was used to determine the IC50-value of the bivalent target glycopeptide 1 in comparison with monovalent reference ligands, employing mannan-coated microtiter plates and type 1 fimbriated E. coli (HB101pPKL4) as described earlier Optical densities (ODs) were measured on an AMP 400 COM ELISA reader at 405 nm (reference wavelength 492 nm). The percentage inhibition was calculated as {[OD(nI)-OD(I)] × 100 × [OD(nI)]^−1} (nI: no inhibitor, I: with inhibitor). […]

Structure (SMILES) | RIP (relative inhibitory potency) [1] | IC50 ([2]; mannan from Saccharomyces cerversiae coated (1 mg × ml^−1, 50 mM aq Na2CO3, pH 9.6), type 1 fimbriated E. coli (HB101pPKL4), OD at 405 nm (reference 492 nm), inhibitor in serial dilutions, sigmoidal fit, average values from three independent assays, S (in parentheses): standard deviation, read-out: IC50 (inhibitor concentration that causes 50% inhibition of bacterial binding to mannan)) | RIP (relative inhibitory potency) ([2]; relative to IC50 of MeMan on the same plate, IP(MeMan) ≡ 1, type 1 fimbriated E. coli on mannan)
C=CCO[C@H]1O[C@H](CO)[C@@H](O)[C@H](O[C@H]2O[C@H](CO)[C@@H](O)[C@H](O)[C@@H]2O)[C@@H]1O [allyl Man(1,3)Man, allyl 3-O-α-D-mannosyl-α-D-mannoside] | 7^a | – | –
CO[C@H]1O[C@H](CO)[C@@H](O)[C@H](O)[C@@H]1O [MeMan, methyl α-D-mannopyranoside] | – | 2900 µM | 1
C=CCO[C@H]1O[C@H](CO[C@H]2O[C@H](CO)[C@@H](O)[C@H](O)[C@@H]2O)[C@@H](O)[C@H](O)[C@@H]1O [allyl Man(1,6)Man, allyl 6-O-α-D-mannosyl-α-D-mannoside] | 0.5^a | – | –
C=CCO[C@H]1O[C@H](CO[C@H]2O[C@H](CO)[C@@H](O)[C@H](O)[C@@H]2O)[C@@H](O)[C@H](O[C@H]2O[C@H](CO)[C@@H](O)[C@H](O)[C@@H]2O)[C@@H]1O [allyl Man(1,3)[Man(1,6)]Man, allyl 3,6-di-O-(α-D-mannosyl)-α-D-mannoside] | 20^a | – | –
